From US20130035326A1 (AMBIT BIOSCIENCES CORPORATION, priority 2009, published 2013)
Values joined by “and” are separate entries in the source; they are usually repeats but may differ in a detail not shown here. Equal values may be shown once.

Key:
KIT kinase = target: T1, KIT kinase (Homo sapiens, UniProt P10721); test: Competition binding assay, KIT Kd
T1 construct: made in house; host or cells: T7 phage display or HEK-293 cells
How it was run: (§1)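 Kinases expressed as T7 phage fusions or in HEK-293 cells with DNA tags competed with test compound for immobilized biotinylated affinity ligand on streptavidin beads. Binding ran 1 hour at room temperature in SeaBlock/PBS/Tween/DTT buffer. Bound kinase was eluted with non-biotinylated ligand and quantified by qPCR; Kd from eleven-point threefold dilutions.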

[1] = target: kinase panel containing either 359 or 386 distinct kinases; test: Selectivity score S10 from competition binding against a panel of kinases; conditions: compounds at 10 μM; for Kinase specificty: S(10)-359 panel: panel of 359 distinct kinases
Procedure: Competition binding assays used herein were developed, validated and performed as described in Fabian et al., Nature Biotechnology 2005, 23,329-336. Kinases were produced as fusions to T7 phage (See, Fabian et al. or WO04/015142) or alternatively, the kinases were expressed in HEK-293 cells and subsequently tagged with DNA for PCR detection (See, WO08/005,310). For the binding assays, streptavidin-coated magnetic beads were treated with biotinylated affinity ligands for 30 min at room temperature to generate affinity resins. The liganded beads were blocked with excess biotin and washed with blocking buffer (SeaBlock (Pierce), 1% BSA, 0.05% Tween 20, 1 mM DTT) to remove unbound ligand and to reduce non-specific binding. Binding reactions were assembled by combining kinase, liganded affinity beads, and test compounds in 1× binding buffer (20% SeaBlock, 0.17×PBS, 0.05% Tween 20, 6 mM DTT). Test compounds were prepared as 100× stocks in DMSO and diluted into the aqueous environment. Kds were determined using an eleven point threefold serial dilutions. DMSO or control compounds were was added to control assays lacking a test compound. Primary screen assays were performed in polypropylene 384-well plates in a final volume of 20-40 μL, while Kd determinations were performed in polystyrene 96-well plates in a final volume of 135 μL. The assay plates were incubated at room temperature with shaking for 1 hour to allow the binding reactions to reach equilibrium, and the affinity beads were washed extensively with wash buffer (1×PBS, 0.05% Tween 20) to remove unbound protein. The beads were then resuspended in elution buffer (1×PBS, 0.05% Tween 20, 0.5 μM non-biotinylated affinity ligand) and incubated at room temperature with shaking for 30 min. The kinase concentration in the eluates was measured by quantitative PCR.
A selectivity score (S10) is a quantitative measure of selectivity of a compound against a panel of kinases. An S10 was calculated for a compound by dividing the number of kinases found to have a percent of control (DMSO) less than 10 by the total number of distinct kinases tested (excluding mutant variants). Percent of control (POC) is calculated by subtracting the signal of the control compound (POC=0) from the signal of the test compound and dividing the outcome by the signal of DMSO (POC=100) minus the signal of the control compound. For the compounds disclosed herein, S10 scores were obtained by testing the compounds at 10 μM concentration in a kinase panel containing either 359 or 386 distinct kinases.

CSF-1R kinase = target: T2, CSF-1R kinase (Homo sapiens, UniProt P07333); test: Competition binding assay, CSF-1R Kd
T2 construct: made in house; host or cells: T7 phage display or HEK-293 cells
How it was run: as §1

FLT3 kinase = target: T3, FLT3 kinase (Homo sapiens, UniProt P36888); test: Competition binding assay, FLT3 Kd
T3 construct: made in house; host or cells: T7 phage display or HEK-293 cells
T3 sequence (P36888 27-993): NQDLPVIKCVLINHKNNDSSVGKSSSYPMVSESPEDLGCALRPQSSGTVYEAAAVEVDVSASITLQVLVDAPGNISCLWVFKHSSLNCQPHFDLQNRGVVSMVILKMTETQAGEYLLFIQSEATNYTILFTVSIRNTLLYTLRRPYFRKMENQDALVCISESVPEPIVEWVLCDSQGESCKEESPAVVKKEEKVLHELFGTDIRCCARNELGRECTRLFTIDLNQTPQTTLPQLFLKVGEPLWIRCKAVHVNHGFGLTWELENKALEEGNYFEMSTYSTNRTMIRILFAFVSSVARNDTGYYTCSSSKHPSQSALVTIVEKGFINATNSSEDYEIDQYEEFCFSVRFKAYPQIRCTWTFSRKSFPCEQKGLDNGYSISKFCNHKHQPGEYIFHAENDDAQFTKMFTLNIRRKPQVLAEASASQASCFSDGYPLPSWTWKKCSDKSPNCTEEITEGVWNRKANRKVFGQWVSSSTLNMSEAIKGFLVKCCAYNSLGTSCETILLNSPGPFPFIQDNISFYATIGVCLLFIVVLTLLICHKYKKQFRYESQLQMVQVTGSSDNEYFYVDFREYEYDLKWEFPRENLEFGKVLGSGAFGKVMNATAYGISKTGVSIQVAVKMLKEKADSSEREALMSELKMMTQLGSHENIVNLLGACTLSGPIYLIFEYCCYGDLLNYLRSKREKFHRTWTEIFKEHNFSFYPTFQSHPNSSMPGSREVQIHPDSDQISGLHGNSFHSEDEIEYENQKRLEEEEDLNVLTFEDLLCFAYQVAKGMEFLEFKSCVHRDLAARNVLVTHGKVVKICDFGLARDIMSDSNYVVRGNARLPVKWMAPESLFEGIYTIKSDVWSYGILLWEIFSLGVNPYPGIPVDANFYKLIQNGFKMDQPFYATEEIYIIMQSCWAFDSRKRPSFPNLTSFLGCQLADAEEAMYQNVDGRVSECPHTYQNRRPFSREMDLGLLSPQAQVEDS
How it was run: as §1

MV4-11 cells = test: MV4-11 cell proliferation assay (Alamar Blue); type: cell-based; conditions: Homo sapiens, MV4-11, 72 h, 3 days incubation
How it was run: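 Flt3-ITD MV4-11 cells were serum-starved overnight in Iscove's with 0.5% FBS, then given compound at 9 half-log concentrations (0.5% DMSO) for 3 days at 37° C. Alamar Blue reduction was read after 3 h by fluorescence (560/590 nm). IC50 is the mean of duplicates versus negative control.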

T2 sequence (P07333 20-972): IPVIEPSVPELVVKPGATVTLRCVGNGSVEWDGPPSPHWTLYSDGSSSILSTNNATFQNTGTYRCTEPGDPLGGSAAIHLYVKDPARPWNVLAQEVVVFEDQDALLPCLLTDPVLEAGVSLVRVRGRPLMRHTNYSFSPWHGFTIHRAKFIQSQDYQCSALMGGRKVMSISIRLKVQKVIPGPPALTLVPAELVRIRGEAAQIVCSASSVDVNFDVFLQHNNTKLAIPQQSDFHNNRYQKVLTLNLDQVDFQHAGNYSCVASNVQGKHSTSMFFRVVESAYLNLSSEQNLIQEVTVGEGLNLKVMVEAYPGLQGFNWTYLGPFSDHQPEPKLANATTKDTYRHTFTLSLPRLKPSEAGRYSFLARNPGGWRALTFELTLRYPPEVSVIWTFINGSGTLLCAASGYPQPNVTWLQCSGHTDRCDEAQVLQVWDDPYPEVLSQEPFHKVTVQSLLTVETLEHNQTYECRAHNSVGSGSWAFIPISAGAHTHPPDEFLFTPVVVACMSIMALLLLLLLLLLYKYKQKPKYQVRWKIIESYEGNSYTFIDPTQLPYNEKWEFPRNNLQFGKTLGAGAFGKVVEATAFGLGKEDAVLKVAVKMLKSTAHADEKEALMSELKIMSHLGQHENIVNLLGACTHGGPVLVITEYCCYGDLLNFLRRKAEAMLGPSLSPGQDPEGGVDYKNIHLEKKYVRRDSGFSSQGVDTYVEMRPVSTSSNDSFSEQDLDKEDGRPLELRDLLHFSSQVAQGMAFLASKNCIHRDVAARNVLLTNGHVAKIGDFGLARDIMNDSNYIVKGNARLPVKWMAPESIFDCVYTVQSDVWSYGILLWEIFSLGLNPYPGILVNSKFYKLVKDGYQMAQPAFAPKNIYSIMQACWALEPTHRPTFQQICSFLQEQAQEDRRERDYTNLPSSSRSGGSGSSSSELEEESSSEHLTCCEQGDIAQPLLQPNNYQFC
T1 sequence (P10721 26-976): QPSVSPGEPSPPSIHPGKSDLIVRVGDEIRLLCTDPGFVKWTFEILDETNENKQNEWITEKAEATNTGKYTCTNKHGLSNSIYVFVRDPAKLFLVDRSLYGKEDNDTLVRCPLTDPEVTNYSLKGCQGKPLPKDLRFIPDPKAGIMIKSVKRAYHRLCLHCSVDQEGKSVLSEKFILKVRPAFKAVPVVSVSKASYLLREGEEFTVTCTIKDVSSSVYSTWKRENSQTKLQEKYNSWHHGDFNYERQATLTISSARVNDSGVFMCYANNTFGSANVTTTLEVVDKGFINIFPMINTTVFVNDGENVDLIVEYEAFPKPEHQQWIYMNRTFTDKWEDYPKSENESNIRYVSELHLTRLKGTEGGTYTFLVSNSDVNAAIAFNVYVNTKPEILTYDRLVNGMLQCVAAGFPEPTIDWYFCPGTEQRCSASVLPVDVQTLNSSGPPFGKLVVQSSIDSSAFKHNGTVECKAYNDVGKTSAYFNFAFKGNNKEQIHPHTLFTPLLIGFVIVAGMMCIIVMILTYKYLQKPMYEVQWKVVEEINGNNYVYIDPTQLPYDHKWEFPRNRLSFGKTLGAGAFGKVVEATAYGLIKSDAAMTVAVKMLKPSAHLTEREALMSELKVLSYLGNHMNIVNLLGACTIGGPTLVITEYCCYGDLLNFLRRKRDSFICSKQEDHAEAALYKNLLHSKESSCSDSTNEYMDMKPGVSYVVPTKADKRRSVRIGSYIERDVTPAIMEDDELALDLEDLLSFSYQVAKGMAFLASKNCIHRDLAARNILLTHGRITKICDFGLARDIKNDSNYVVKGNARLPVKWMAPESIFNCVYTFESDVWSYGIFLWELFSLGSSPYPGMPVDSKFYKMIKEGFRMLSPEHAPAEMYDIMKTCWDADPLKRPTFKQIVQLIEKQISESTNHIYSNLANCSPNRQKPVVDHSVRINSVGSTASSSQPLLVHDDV

Kd (KIT kinase) [µM]	Kinase specificty: S(10)-359 panel [1]	Kd (CSF-1R kinase) [µM]	Kd (FLT3 kinase)	IC50 (MV4-11 cells) [µM]	Kinase specificty: S(10)-386 panel ([1]; panel of 386 distinct kinases)	Compound
0.001 to 0.01	A (A≦0.1)	≤ 0.01	0.001 to 0.01 µM	> 0.5		CC(C)(C)c1cc(NC(=O)Nc2ccc(-c3cnc(N)c(CO)c3)cc2)no1 [Example 8, 1-(4-(6-amino-5-(hydroxymethyl)pyridin-3-yl)phenyl)-3-(5-tert-butylisoxazol-3-yl)urea]
0.001 to 0.01	A (A≦0.1)	≤ 0.01	0.001 to 0.01 µM	0.01 to 0.1		CC(C)(C)c1cc(NC(=O)Nc2ccc(-c3cnc4c(c3)CCC(=O)N4)cc2)no1 [Example 9, 1-(5-tert-butylisoxazol-3-yl)-3-(4-(7-oxo-5,6,7,8-tetrahydro-1,8-naphthyridin-3-yl)phenyl)urea]
0.001 to 0.01	A (A≦0.1)	≤ 0.01	0.001 to 0.01 µM	0.1 to 0.5		Cc1cc(N)nc(C)c1-c1ccc(NC(=O)Nc2cc(C(C)(C)C)on2)cc1 [Example 10, 1-(4-(6-amino-2,4-dimethylpyridin-3-yl)phenyl)-3-(5-tert-butylisoxazol-3-yl)urea]
0.001 to 0.01	A (A≦0.1)	≤ 0.01	≤ 0.001 µM	0.001 to 0.01		CC(C)(C)c1cc(NC(=O)Nc2ccc(-c3ccc(N)nc3)c(F)c2)no1 [Example 11, 1-(4-(6-aminopyridin-3-yl)-3-fluorophenyl)-3-(5-tert-butylisoxazol-3-yl)urea]
0.001 to 0.01	A (A≦0.1)	≤ 0.01	0.001 to 0.01 µM	0.001 to 0.01		CC(C)(C)c1cc(NC(=O)Nc2ccc(-c3cnc4c(c3)CCCN4)cc2)no1 [Example 12, 1-(5-tert-butylisoxazol-3-yl)-3-(4-(5,6,7,8-tetrahydro-1,8-naphthyridin-3-yl)phenyl)urea]
0.001 to 0.01	B (0.1<B≦0.2 nM)	0.01 to 0.1	0.001 to 0.01 µM	0.01 to 0.1		CC(C)(C)c1cc(NC(=O)Nc2ccc(-c3cnc(N)c(CN4CCOCC4)c3)cc2)no1 [Example 13, 1-(4-(6-amino-5-(morpholinomethyl)pyridin-3-yl)phenyl)-3-(5-tert-butylisoxazol-3-yl)urea]
≤ 0.001	B (0.1<B≦0.2 nM)	≤ 0.01	≤ 0.001 µM	≤ 0.001		CC(C)(C)c1cc(NC(=O)Nc2ccc(-c3ccc(N)nc3)cc2F)no1 [Example 14, 1-[4-(6-aminopyridin-3-yl)-2-fluorophenyl]-3-(5-tert-butylisoxazol-3-yl)-urea]
0.001 to 0.01	B (0.1<B≦0.2 nM)	0.01 to 0.1	0.001 to 0.01 µM	0.01 to 0.1		CC(C)(C)c1cc(NC(=O)Nc2ccc(-c3ccc(N)nc3)cc2Cl)no1 [Example 15, 1-(4-(6-aminopyridin-3-yl)-2-chlorophenyl)-3-(5-tert-butylisoxazol-3-yl)urea]
≤ 0.001	B (0.1<B≦0.2 nM)	0.01 to 0.1	≤ 0.001 µM	0.001 to 0.01		CC(C)(C)c1cc(NC(=O)Nc2ccc(-c3ccc(N)nc3)c(Cl)c2)no1 [Example 16, 1-(4-(6-aminopyridin-3-yl)-3-chlorophenyl)-3-(5-tert-butylisoxazol-3-yl)urea]
≤ 0.001	A (A≦0.1)	≤ 0.01	≤ 0.001 µM	0.001 to 0.01		CC(C)(C)c1cc(NC(=O)Nc2ccc(-c3ccc(N)nc3)cn2)no1 [Example 17, 1-(6′-amino-[3,3′]bipyridinyl-6-yl)-3-(5-tert-butylisoxazol-3-yl)urea]
0.001 to 0.01	A (A≦0.1)	≤ 0.01	≤ 0.001 µM and 0.001 to 0.01 µM	≤ 0.001	A (A≦0.1)	CC(C)(C)c1cc(NC(=O)Cc2ccc(-c3ccc(N)nc3)cc2)no1 [Example 18, 2-(4-(6-aminopyridin-3-yl)phenyl)-N-(5-tert-butylisoxazol-3-yl)acetamide]
0.001 to 0.01	A (A≦0.1)	0.01 to 0.1	0.001 to 0.01 µM	> 0.5		CC(C)(C)c1cc(NC(=O)Nc2ccc(-c3ccc(N)nc3)s2)no1 [Example 19, 1-(5-(6-aminopyridin-3-yl)thiophen-2-yl)-3-(5-tert-butylisoxazol-3-yl)urea]
0.001 to 0.01	B (0.1<B≦0.2 nM)	≤ 0.01	≤ 0.001 µM	0.001 to 0.01		CC(C)(C)c1cc(NC(=O)Nc2cc(F)c(-c3ccc(N)nc3)cc2F)no1 [Example 20, 1-(4-(6-aminopyridin-3-yl)-2,5-difluorophenyl)-3-(5-tert-butylisoxazol-3-yl)urea]
≤ 0.001	B (0.1<B≦0.2 nM)	≤ 0.01	≤ 0.001 µM	0.001 to 0.01		CC(C)(C)c1cc(NC(=O)Nc2ccc(-c3cnc4c(c3)COCCN4)cc2)no1 [Example 21, 1-(5-tert-butylisoxazol-3-yl)-3-(4-(1,2,3,5-tetrahydropyrido[2,3-e][1,4]oxazepin-7-yl)phenyl)urea]
≤ 0.001	B (0.1<B≦0.2 nM)	≤ 0.01	≤ 0.001 µM	≤ 0.001		CC(C)(C)c1cc(NC(=O)Nc2ccc(-c3cnc(N)c(COCCO)c3)cc2)no1 [Example 22, 1-(4-(6-amino-5-((2-hydroxyethoxy)methyl)pyridin-3-yl)phenyl)-3-(5-tert-butylisoxazol-3-yl)urea]
0.001 to 0.01	A (A≦0.1)	≤ 0.01	≤ 0.001 µM	0.01 to 0.1		Cc1nc(N)ccc1-c1ccc(NC(=O)Nc2cc(C(C)(C)C)on2)cc1 [Example 23, 1-(4-(6-amino-2-methylpyridin-3-yl)phenyl)-3-(5-tert-butylisoxazol-3-yl)urea]
0.001 to 0.01	A (A≦0.1)	≤ 0.01	≤ 0.001 µM	0.001 to 0.01		Cc1cc(N)ncc1-c1ccc(NC(=O)Nc2cc(C(C)(C)C)on2)cc1 [Example 24, 1-(4-(6-amino-4-methylpyridin-3-yl)phenyl)-3-(5-tert-butylisoxazol-3-yl)urea]
